Measurements published in PubChem BioAssay (NCI).
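Method: 48-hour compound exposure of cells in 96-well plates, five concentrations, linear interpolation of endpoints. TGI marks complete inhibition of growth.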

Assays:
Assay in all cases: NCI tumour cell line growth inhibition, 48 h
[1] = tested on: 786-0 renal
[2] = tested on: A498 renal
[3] = tested on: A549 NSCLC
[4] = tested on: ACHN renal
[5] = tested on: BT-549 breast
[6] = tested on: CAKI-1 renal
[7] = tested on: CCRF-CEM leukemia
[8] = tested on: COLO 205 colon
[9] = tested on: DU-145 prostate
[10] = tested on: EKVX NSCLC
[11] = tested on: HCC-2998 colon
[12] = tested on: HCT-116 colon
[13] = tested on: HCT-15 colon
[14] = tested on: HL-60(TB) leukemia
[15] = tested on: HOP-62 NSCLC
[16] = tested on: HS 578T breast
[17] = tested on: HT29 colon
[18] = tested on: K-562 leukemia
[19] = tested on: KM12 colon
[20] = tested on: LOX IMVI melanoma
[21] = tested on: M14 melanoma
[22] = tested on: MALME-3M melanoma
[23] = tested on: MCF7 breast
[24] = tested on: MDA-MB-231 breast
[25] = tested on: MDA-MB-435
[26] = tested on: MDA-N
[27] = tested on: MOLT-4 leukemia
[28] = tested on: NCI-H226 lung
[29] = tested on: NCI-H23 lung
[30] = tested on: NCI-H460 lung
[31] = tested on: NCI/ADR-RES ovarian
[32] = tested on: OVCAR-3 ovarian
[33] = tested on: OVCAR-4 ovarian
[34] = tested on: OVCAR-5 ovarian
[35] = tested on: OVCAR-8 ovarian
[36] = tested on: PC-3 prostate
[37] = tested on: RPMI-8226 leukemia
[38] = tested on: RXF 393 renal
[39] = tested on: SF-268 CNS
[40] = tested on: SF-295 CNS
[41] = tested on: SF-539 CNS
[42] = tested on: SK-MEL-28 melanoma
[43] = tested on: SK-MEL-5 melanoma
[44] = tested on: SK-OV-3 ovarian
[45] = tested on: SN12C renal
[46] = tested on: SNB-19 CNS
[47] = tested on: SNB-75 CNS
[48] = tested on: SW-620 colon
[49] = tested on: T-47D breast
[50] = tested on: TK-10 renal
[51] = tested on: U251 CNS
[52] = tested on: UACC-257 melanoma
[53] = tested on: UACC-62 melanoma
[54] = tested on: UO-31 renal
[55] = tested on: HOP-92 NSCLC
[56] = tested on: IGROV1 ovarian
[57] = tested on: NCI-H522 lung
[58] = tested on: SR leukemia
[59] = tested on: SK-MEL-2 melanoma

## COC(=O)C(=O)CC(=O)c1cccc(OC)c1
[1]
  TGI: > 100 µM
[2]
  TGI: > 100 µM
[3]
  TGI: > 100 µM
[4]
  TGI: > 100 µM
[5]
  TGI: > 100 µM
[6]
  TGI: > 100 µM
[7]
  TGI: > 100 µM
[8]
  TGI: > 100 µM
[9]
  TGI: > 100 µM
[10]
  TGI: > 100 µM
[11]
  TGI: > 100 µM
[12]
  TGI: > 100 µM
[13]
  TGI: > 100 µM
[14]
  TGI: > 100 µM
[15]
  TGI: > 100 µM
[16]
  TGI: > 100 µM
[17]
  TGI: > 100 µM
[18]
  TGI: > 100 µM
[19]
  TGI: > 100 µM
[20]
  TGI: > 100 µM
[21]
  TGI: > 100 µM
[22]
  TGI: > 100 µM
[23]
  TGI: > 100 µM
[24]
  TGI: > 100 µM
[25]
  TGI: > 100 µM
[26]
  TGI: > 100 µM
[27]
  TGI: > 100 µM
[28]
  TGI: > 100 µM
[29]
  TGI: > 100 µM
[30]
  TGI: > 100 µM
[31]
  TGI: > 100 µM
[32]
  TGI: > 100 µM
[33]
  TGI: > 100 µM
[34]
  TGI: > 100 µM
[35]
  TGI: > 100 µM
[36]
  TGI: > 100 µM
[37]
  TGI: > 100 µM
[38]
  TGI: > 100 µM
[39]
  TGI: > 100 µM
[40]
  TGI: > 100 µM
[41]
  TGI: > 100 µM
[42]
  TGI: > 100 µM
[43]
  TGI: > 100 µM
[44]
  TGI: > 100 µM
[45]
  TGI: > 100 µM
[46]
  TGI: > 100 µM
[47]
  TGI: > 100 µM
[48]
  TGI: > 100 µM
[49]
  TGI: > 100 µM
[50]
  TGI: > 100 µM
[51]
  TGI: > 100 µM
[52]
  TGI: > 100 µM
[53]
  TGI: > 100 µM
[54]
  TGI: > 100 µM

## O=c1cc(CF)[nH]c(=S)[nH]1
[1]
  TGI: > 100 µM
[2]
  TGI: > 100 µM
[3]
  TGI: > 100 µM
[4]
  TGI: > 100 µM
[5]
  TGI: > 100 µM
[6]
  TGI: > 100 µM
[7]
  TGI: > 100 µM
[9]
  TGI: > 100 µM
[10]
  TGI: > 100 µM
[11]
  TGI: > 100 µM
[12]
  TGI: > 100 µM
[13]
  TGI: > 100 µM
[15]
  TGI: > 100 µM
[55]
  TGI: > 100 µM
[16]
  TGI: > 100 µM
[17]
  TGI: > 100 µM
[56]
  TGI: > 100 µM
[18]
  TGI: > 100 µM
[19]
  TGI: > 100 µM
[20]
  TGI: > 100 µM
[21]
  TGI: > 100 µM
[22]
  TGI: > 100 µM
[24]
  TGI: > 100 µM
[25]
  TGI: > 100 µM
[26]
  TGI: > 100 µM
[27]
  TGI: > 100 µM
[28]
  TGI: > 100 µM
[29]
  TGI: > 100 µM
[30]
  TGI: > 100 µM
[57]
  TGI: > 100 µM
[31]
  TGI: > 100 µM
[32]
  TGI: > 100 µM
[33]
  TGI: > 100 µM
[34]
  TGI: > 100 µM
[35]
  TGI: > 100 µM
[36]
  TGI: > 100 µM
[38]
  TGI: > 100 µM
[39]
  TGI: > 100 µM
[40]
  TGI: > 100 µM
[42]
  TGI: > 100 µM
[43]
  TGI: > 100 µM
[45]
  TGI: > 100 µM
[46]
  TGI: > 100 µM
[47]
  TGI: > 100 µM
[58]
  TGI: > 100 µM
[48]
  TGI: > 100 µM
[49]
  TGI: > 100 µM
[50]
  TGI: > 100 µM
[51]
  TGI: > 100 µM
[52]
  TGI: > 100 µM
[53]
  TGI: > 100 µM
[54]
  TGI: > 100 µM

## CCC(=O)OCN(C)c1nc(N(C)COC(=O)CC)nc(N(C)COC(=O)CC)n1
[2]
  TGI: > 100 µM
[5]
  TGI: > 100 µM
[6]
  TGI: > 100 µM
[7]
  TGI: > 100 µM
[8]
  TGI: 59.2 µM
[9]
  TGI: > 100 µM
[11]
  TGI: 68.6 µM
[12]
  TGI: 64 µM
[13]
  TGI: 56 µM
[15]
  TGI: > 100 µM
[55]
  TGI: > 100 µM
[16]
  TGI: > 100 µM
[17]
  TGI: 98.3 µM
[56]
  TGI: > 100 µM
[18]
  TGI: > 100 µM
[19]
  TGI: > 100 µM
[20]
  TGI: 70.3 µM
[21]
  TGI: 77.3 µM
[22]
  TGI: > 100 µM
[23]
  TGI: > 100 µM
[24]
  TGI: > 100 µM
[25]
  TGI: > 100 µM
[26]
  TGI: > 100 µM
[27]
  TGI: 82.9 µM
[28]
  TGI: > 100 µM
[29]
  TGI: > 100 µM
[30]
  TGI: > 100 µM
[31]
  TGI: > 100 µM
[32]
  TGI: > 100 µM
[33]
  TGI: > 100 µM
[34]
  TGI: > 100 µM
[35]
  TGI: > 100 µM
[36]
  TGI: > 100 µM
[37]
  TGI: 76 µM
[38]
  TGI: 25.5 µM
[40]
  TGI: > 100 µM
[59]
  TGI: 42 µM
[42]
  TGI: > 100 µM
[43]
  TGI: 52.5 µM
[44]
  TGI: > 100 µM
[45]
  TGI: > 100 µM
[46]
  TGI: > 100 µM
[47]
  TGI: > 100 µM
[58]
  TGI: 71 µM
[48]
  TGI: > 100 µM
[49]
  TGI: > 100 µM
[50]
  TGI: > 100 µM
[51]
  TGI: > 100 µM
[52]
  TGI: > 100 µM
[53]
  TGI: 35.8 µM
[54]
  TGI: > 100 µM

## COc1cc(Nc2nc3cc(C(F)(F)F)ccc3nc2C(=O)O)cc(OC)c1OC
[1]
  TGI: > 100 µM
[2]
  TGI: > 100 µM
[3]
  TGI: > 100 µM
[4]
  TGI: > 100 µM
[5]
  TGI: > 100 µM
[6]
  TGI: 99 µM
[7]
  TGI: 90.8 µM
[8]
  TGI: > 100 µM
[9]
  TGI: > 100 µM
[10]
  TGI: > 100 µM
[11]
  TGI: > 100 µM
[12]
  TGI: > 100 µM
[13]
  TGI: > 100 µM
[14]
  TGI: > 100 µM
[15]
  TGI: > 100 µM
[55]
  TGI: 85 µM
[16]
  TGI: > 100 µM
[17]
  TGI: > 100 µM
[56]
  TGI: > 100 µM
[19]
  TGI: > 100 µM
[20]
  TGI: > 100 µM
[21]
  TGI: > 100 µM
[22]
  TGI: > 100 µM
[23]
  TGI: > 100 µM
[24]
  TGI: 70.3 µM
[25]
  TGI: > 100 µM
[26]
  TGI: > 100 µM
[27]
  TGI: > 100 µM
[28]
  TGI: > 100 µM
[29]
  TGI: > 100 µM
[30]
  TGI: > 100 µM
[57]
  TGI: > 100 µM
[31]
  TGI: > 100 µM
[32]
  TGI: > 100 µM
[33]
  TGI: > 100 µM
[34]
  TGI: > 100 µM
[35]
  TGI: > 100 µM
[38]
  TGI: 70.2 µM
[39]
  TGI: > 100 µM
[40]
  TGI: 67.8 µM
[41]
  TGI: > 100 µM
[59]
  TGI: 38.9 µM
[42]
  TGI: > 100 µM
[43]
  TGI: > 100 µM
[45]
  TGI: > 100 µM
[46]
  TGI: > 100 µM
[47]
  TGI: > 100 µM
[48]
  TGI: > 100 µM
[49]
  TGI: > 100 µM
[50]
  TGI: > 100 µM
[51]
  TGI: > 100 µM
[52]
  TGI: > 100 µM
[53]
  TGI: > 100 µM
[54]
  TGI: > 100 µM
